Key:
[1] = test system: Chlorella sp. ATCC 7516; assay: Algal efficacy testing of dry paint film (modified ASTM 5589, 6-well plates); assay type: cell-based; conditions: 3 weeks; for Total conc: total biocide concentration in paint reaching pass level (at least 75% inhibition)
Method: (§1) Slurries containing 33% antimicrobial active ingredient (flurochloridone) were post added to a white, acrylic/silicone based outdoor paint free of biocides to give a total active ingredient concentration of 10000 and 1000 ppm respectively. ROCIMA™ 250 (40% IPBC) was post added to a white, acrylic/silicone based outdoor paint free of biocides to give a total active ingredient concentration of 10000 and 1000 ppm respectively. These paints were then diluted with an antimicrobial free acrylic/silicone based paint and mixed to prepare targeted concentrations of antimicrobial compounds for the testing. The total biocides concentrations tested were 125, 250, 500, 1000, 2000 and 5000 ppm. After biocides addition or dilution, the paints were mixed 90 seconds with the horse power shaker (AXEL 75M3372/ Agitateur SO-10MI) until uniformity was achieved. Paints containing different antimicrobial compounds at the same levels were mixed together in order to obtain the desired ratio of antimicrobial compounds. After one day, the paints were applied to Schleicher & Schuell filter paper at 280 μm wet film thickness and dried for 3 days at room temperature avoiding direct exposure to sunlight. Square discs (1.6 cm×1.6 cm) were cut out from each panel and were used as the substrate for algal efficacy tests. This sample size allowed for an agar border when the sample disc was placed into the well of the test plate.
(§2) Algal efficacy was tested according to modified ASTM 5589 which is a standard accelerated test method for determining resistance of various coatings (including paints) to algal defacement. To accommodate for high-throughput screening, this method was scaled down from petri dishes to 6-well plates. Bold Modified Basal Freshwater Nutrient Solution was used as growth medium. A single coated filter paper coupon was placed with a pair of sterile forceps at the center of the agar plug (on top) with the painted surface facing upwards. Algal inoculums were prepared by mixing equal concentrations (1×10^6 cfu/ml) and equal volumes of exponentially growing algae cultures.
(§3) Each well that contains a tested coupon was inoculated with 1750 μl of algal suspensions (1×10^6 cfu/ml) making sure that the whole surface (paint film as well as the agar surrounding it) was evenly covered. The plates were incubated at room temp (21° C.-25° C.) with cyclic exposure to light and dark phases, for a period of three weeks. The total area inhibited was evaluated at the end of each week according to percent area covered in 5% increments.
(§4) At the end of the three week incubation period, the samples were scored for percent inhibition regarding color intensity compared to the blank sample.
(§5) The SI is calculated based on F. C. Kull et.
(§6) The minimal targeted inhibition was set at 75%, meaning a coupon with at least 75% algal growth inhibition was considered as a pass.

[2] = test system: Stichococcus bacillaris SAG 379-1a; assay: as above; assay type: cell-based; conditions: 3 weeks; for Total conc: total biocide concentration in paint reaching pass level (at least 75% inhibition)
Method: as §1, §2, §3, §4, §5, §6

SMILES | % inhibition ([1]; total conc 2000 ppm) [%] | Total conc [1] [ppm] | % inhibition ([2]; total conc 2000 ppm) [%] | Total conc [2] [ppm] | inhibition at 5000 ppm ([1]; 504 h, total conc 5000 ppm) [%] | inhibition at 5000 ppm ([2]; Stichococcus bacillaris, 504 h, total conc 5000 ppm) [%]
CCCCNC(=O)OCC#CI [IPBC, 3-Iodo-2-propynyl-butylcarbamate] | 85 | 2000 | 90 | 2000 | – | –
O=C1C(Cl)C(CCl)CN1c1cccc(C(F)(F)F)c1 (centres unmarked) [Flurochloridone, 3-chloro-4-(chloromethyl)-1-[3-(trifluoromethyl)phenyl]-2-pyrrolidinone] | – | 5000 | – | 5000 | 85 | 90

— patent US9307768B2, “Synergistic combination of a flurochloridone compound and IPBC for dry film protection” (priority 2013, dated 2016)
